Assay results: patent publication US20190064146A1, “IMMUNE CELLS HAVING INCREASED IMMUNITY OR RESISTANCE TO AN IMMUNOSUPPRESSIVE CYTOKINE AND USE OF THE SAME” (Innate Tumor Immunity, INC., priority 2015, published 2019)

System: EG.7 tumor cells
Experiment: Adoptive transfer of in vitro activated OT-1 CD8+ T cells into mice with established EG.7 flank tumors
Type: in vivo
Settings: OT-1 splenocytes activated with OVA antigen 1 μg/mL plus TGF-β 10 ng/mL and IL-1β 10 ng/mL for 5 days; 5×10^6 CD8+ cells intraperitoneally into C57BL/6J mice with 7-day EG.7 tumors
Experimental: To induce tumor, 1×10^6 EG.7 tumor cells, which expressed the OVA antigen, were injected subcutaneously on the flank of Black/6 mice. In this condition, after 7 days EG.7 cells from palpable tumors. To generate anti-tumor T cells, splenocytes from OT-1 mice, which have a transgenic TCR that recognize OVA antigen, were activated with OVA antigen (1 μg/mL) in the presence of TGF-β, or the presence of TGF-β and IL-1β. After 5 days CD8^+ cells were purified. […] Tumor volume was recorded 3 times a week until the end of the study. […]
OT-1 mice were anesthetized and spleens were harvested and strained through a 70-um filter with PBS with 10% FBS. […] After washing, cells were counted and placed in tissue culture at a final concentration of 1×10^6 cells/mL. […]
Tumors were established with subcutaneous flank injections of 1×10^6 cells suspended in 100 μL PBS. Tumors were measured three times a week and volumes were estimated using the formula 3.14×[largest diameter×(perpendicular diameter)^2]/6. […]
The average tumor volumes of the combination treatment group over time was plotted and compared to control treated with vehicle. […] For statistical comparisons, Two-Way Anova with Bonferroni correction was calculated with GaphPrism software.

IL-1β: exemplary NLRP3 activator; cytokine interleukin-1β added to T cell culture
CD8+ antitumor activity against established cancer (tumor volume): promotes CD8^+ antitumor activity against established cancer
